Results: BindingDB's records for patent US12319672 (Idorsia Pharmaceuticals, 2025)

Assays:
Galectin-3 = Galectin-3 (Homo sapiens, UniProt P17931); assay: Inhibitory Activity Assay
Method: (§1) The inhibitory activity of compounds is determined in competitive binding assays. This spectrophotometric assay measures the binding of biotinylated human Gal-3 (hGal-3) or human Gal-1 (hGal-1), respectively, to a microplate-adsorbed glycoprotein, asialofetuin (ASF) (Proc Natl Acad Sci USA. 2013 Mar. 26; 110(13):5052-7.). Alternatively, and preferably, a human Gal-1 version in which all six cysteines are substituted by serines may be used.Briefly, compounds are serially diluted in DMSO (working dilutions). ASF-coated 384 well plates are supplemented with 22.8 μL/well of biotinylated hGal-3 or hGal-1 in assay buffer (i.e. 300-1000 ng/mL biotinylated hGal-3 or hGal-1) to which 1.2 μL of compound working dilutions are added and mixed.Plates are incubated for 3 hours at 4° C., then washed with cold assay buffer (3×50 uL), incubated for 1 hour with 25 μL/well of a streptavidin-peroxidase solution (diluted in assay buffer to 80 ng/mL) at 4° C., followed by further washing steps with assay buffer (3×50 uL). Finally, 25 μL/well of ABTS substrate is added.

Galectin-1 = Galectin-1 (Homo sapiens, UniProt P09382); assay: Inhibitory Activity Assay
Galectin-1, sequence (P09382 whole entry): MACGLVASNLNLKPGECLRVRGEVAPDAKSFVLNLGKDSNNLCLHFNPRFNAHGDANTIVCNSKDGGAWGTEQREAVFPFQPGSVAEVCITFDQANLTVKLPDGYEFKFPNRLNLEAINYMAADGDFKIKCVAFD
Method: as §1

Galectin-3, sequence (P17931 whole entry): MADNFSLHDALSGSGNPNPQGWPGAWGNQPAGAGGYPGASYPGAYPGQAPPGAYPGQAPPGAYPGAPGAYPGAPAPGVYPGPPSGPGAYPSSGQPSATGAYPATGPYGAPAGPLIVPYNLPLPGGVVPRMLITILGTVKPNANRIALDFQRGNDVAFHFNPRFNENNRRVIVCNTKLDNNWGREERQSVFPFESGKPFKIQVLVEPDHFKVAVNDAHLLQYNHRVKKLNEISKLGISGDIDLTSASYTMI

| Structure (SMILES) | IC50 (Galectin-3) | IC50 (Galectin-1) |
| --- | --- | --- |
| CO[C@@H]1[C@@H](n2cc(-c3cc(F)c(F)c(F)c3)nn2)[C@@H](O)[C@@H](CO)O[C@@H]1CC1=NOC(C(C)(C)O)C1 (some centres undefined) [US12319672, Example 1.68] | 470 nM | 5090 nM |
| CO[C@@H]1[C@@H](n2cc(-c3ccc(Br)c(F)c3F)nn2)[C@@H](O)[C@@H](CO)O[C@@H]1Cc1cc(C2CCN(S(C)(=O)=O)CC2)on1 [US12319672, Example 1.155] | 22 nM | 1050 nM |
| CO[C@@H]1[C@@H](n2cc(-c3ccc(Cl)c(F)c3F)nn2)[C@@H](O)[C@@H](CO)O[C@@H]1Cc1cc(C2CCN(C(C)=O)CC2)on1 [US12319672, Example 1.163] | 43 nM | 710 nM |
| CO[C@@H]1[C@@H](n2cc(-c3cc(F)c(Cl)c(F)c3)nn2)[C@@H](O)[C@@H](CO)O[C@@H]1Cc1cc(C2CCN(C(C)=O)CC2)on1 [US12319672, Example 1.167] | 40 nM | 910 nM |
| CO[C@@H]1[C@@H](n2cc(-c3ccc(F)c(F)c3F)nn2)[C@@H](O)[C@@H](CO)O[C@@H]1Cc1cc(-c2ccc(F)c(F)c2F)on1 [US12319672, Example 1.230] | 540 nM | > 100000 nM |
| CO[C@@H]1[C@@H](n2cc(-c3ccc(F)c(F)c3F)nn2)[C@@H](O)[C@@H](CO)O[C@@H]1Cc1cc(C2(C#N)CCCC2)on1 [US12319672, Example 1.277] | 140 nM | 1470 nM |
| CO[C@@H]1[C@@H](n2cc(-c3ccc(Cl)c(F)c3F)nn2)[C@@H](O)[C@@H](CO)O[C@@H]1Cc1cc(C2(C#N)CCCC2)on1 [US12319672, Example 1.279] | 120 nM | 3210 nM |
| Cc1nc2ccc(-c3cn([C@H]4[C@@H](O)[C@@H](CO)O[C@H](CC5CC(C6CCN(C(=O)OC(C)(C)C)CC6)=NO5)[C@@H]4O)nn3)cc2s1 (some centres undefined) [US12319672, Example 1.299] | 4040 nM | 3840 nM |
| CC(C)(C)c1cc(C[C@H]2O[C@H](CO)[C@H](O)[C@H](n3cc(-c4ccc(Cl)c(F)c4F)nn3)[C@H]2O)on1 [US12319672, Example 1.302] | 36 nM | 1000 nM |
| CO[C@@H]1[C@@H](n2cc(-c3ccc(C)c(F)c3F)nn2)[C@H]2OC(C)(C)OC[C@H]2O[C@@H]1Cc1cc(C(C)c2ccccc2)no1 (some centres undefined) [US12319672, Example 1.341] | 200 nM | 15700 nM |
| CO[C@@H]1[C@@H](n2cc(-c3ccc(C)c(F)c3F)nn2)[C@@H](O)[C@@H](CO)O[C@@H]1Cc1cc(C2(O)CCC2)no1 [US12319672, Example 2.57] | 81 nM | 1450 nM |
| CC(=O)N1CCC(c2cc(C[C@H]3O[C@H](CO)[C@H](O)[C@H](n4cc(-c5cc(F)c(F)c(F)c5)nn4)[C@H]3O)no2)CC1 [US12319672, Example 3.17] | 46 nM | 960 nM |
